# According to ChEMBL document CHEMBL1201862, “PubChem BioAssay data set” (2004):
# Active and inactive are the calls of the source.
# What was measured:
# [1] = tested on: HeLa; test: HeLa cell cytotoxicity, dose response, cytotoxicity control for MITF activator project, CellTiter-Glo luminescence, cherry-pick samples (AID 540259); format: functional, cell-based; settings: Homo sapiens
# [2] = molecular target: T1, Sentrin-specific protease 7 (Homo sapiens, UniProt Q9BQF6); format: functional;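 further: Luminescence-based dose-response confirmation of ultra-high-throughput screening hits, measuring inhibition of SENP7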
# T1 sequence (Q9BQF6 whole entry): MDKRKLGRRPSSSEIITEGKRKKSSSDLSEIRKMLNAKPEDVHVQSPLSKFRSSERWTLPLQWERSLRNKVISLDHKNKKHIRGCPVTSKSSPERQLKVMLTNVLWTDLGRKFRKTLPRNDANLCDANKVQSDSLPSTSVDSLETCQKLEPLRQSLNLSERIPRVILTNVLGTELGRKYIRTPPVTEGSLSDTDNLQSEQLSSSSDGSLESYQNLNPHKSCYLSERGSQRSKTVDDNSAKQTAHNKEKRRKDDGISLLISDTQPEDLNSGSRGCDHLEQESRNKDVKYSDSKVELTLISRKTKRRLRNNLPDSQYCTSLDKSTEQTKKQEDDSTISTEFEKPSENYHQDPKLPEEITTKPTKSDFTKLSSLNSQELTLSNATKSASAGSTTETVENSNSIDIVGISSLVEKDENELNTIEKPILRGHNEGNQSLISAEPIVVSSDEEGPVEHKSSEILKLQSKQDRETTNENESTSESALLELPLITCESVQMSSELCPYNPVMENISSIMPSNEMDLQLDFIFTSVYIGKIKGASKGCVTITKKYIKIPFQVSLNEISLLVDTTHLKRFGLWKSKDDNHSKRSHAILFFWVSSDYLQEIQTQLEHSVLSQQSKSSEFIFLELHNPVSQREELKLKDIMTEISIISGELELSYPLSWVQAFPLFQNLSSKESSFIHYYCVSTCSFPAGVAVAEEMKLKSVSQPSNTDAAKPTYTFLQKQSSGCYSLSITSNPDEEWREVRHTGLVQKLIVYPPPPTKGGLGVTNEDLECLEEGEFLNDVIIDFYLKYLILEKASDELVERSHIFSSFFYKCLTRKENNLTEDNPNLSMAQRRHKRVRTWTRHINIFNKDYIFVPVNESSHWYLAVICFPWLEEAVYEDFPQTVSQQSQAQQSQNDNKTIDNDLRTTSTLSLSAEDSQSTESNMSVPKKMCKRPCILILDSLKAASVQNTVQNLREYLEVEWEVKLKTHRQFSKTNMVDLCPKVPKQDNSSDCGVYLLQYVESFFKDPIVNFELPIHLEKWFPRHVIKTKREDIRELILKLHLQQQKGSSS
# [3] = molecular target: T2, Caspase-3 (Homo sapiens, UniProt P42574); format: functional;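 further: Dose-response selectivity test against caspase-3 for candidate inhibitors of sentrin-specific proteases (SENPs)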
# T2 sequence (P42574 whole entry): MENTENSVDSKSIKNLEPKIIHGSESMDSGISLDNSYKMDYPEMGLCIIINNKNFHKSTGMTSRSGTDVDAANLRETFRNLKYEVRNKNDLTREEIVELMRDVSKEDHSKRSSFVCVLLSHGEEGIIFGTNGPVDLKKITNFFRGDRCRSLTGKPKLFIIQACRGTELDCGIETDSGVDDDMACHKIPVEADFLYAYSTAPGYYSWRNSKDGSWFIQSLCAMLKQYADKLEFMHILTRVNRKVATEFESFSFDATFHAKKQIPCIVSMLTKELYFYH
# [4] = molecular target: T3, Sentrin-specific protease 8 (Homo sapiens, UniProt Q96LD8); format: functional;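 further: luminescence read-out of SENP8 inhibition, dose-response confirmation following an ultra-high-throughput screen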
# T3 sequence (Q96LD8 whole entry): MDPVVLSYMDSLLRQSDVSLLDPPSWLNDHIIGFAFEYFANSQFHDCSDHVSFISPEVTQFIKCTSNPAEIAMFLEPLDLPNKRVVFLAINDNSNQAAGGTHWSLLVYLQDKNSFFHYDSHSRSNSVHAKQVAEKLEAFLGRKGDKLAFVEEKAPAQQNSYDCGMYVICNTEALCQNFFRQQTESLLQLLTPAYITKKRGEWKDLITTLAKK
# [5] = molecular target: T4, Sentrin-specific protease 6 (Homo sapiens, UniProt Q9GZR1); format: functional;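 further: Luminescence-based dose-response confirmatory assay of SENP6 inhibition, following up an ultra-high-throughput screen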
# T4 sequence (Q9GZR1 whole entry): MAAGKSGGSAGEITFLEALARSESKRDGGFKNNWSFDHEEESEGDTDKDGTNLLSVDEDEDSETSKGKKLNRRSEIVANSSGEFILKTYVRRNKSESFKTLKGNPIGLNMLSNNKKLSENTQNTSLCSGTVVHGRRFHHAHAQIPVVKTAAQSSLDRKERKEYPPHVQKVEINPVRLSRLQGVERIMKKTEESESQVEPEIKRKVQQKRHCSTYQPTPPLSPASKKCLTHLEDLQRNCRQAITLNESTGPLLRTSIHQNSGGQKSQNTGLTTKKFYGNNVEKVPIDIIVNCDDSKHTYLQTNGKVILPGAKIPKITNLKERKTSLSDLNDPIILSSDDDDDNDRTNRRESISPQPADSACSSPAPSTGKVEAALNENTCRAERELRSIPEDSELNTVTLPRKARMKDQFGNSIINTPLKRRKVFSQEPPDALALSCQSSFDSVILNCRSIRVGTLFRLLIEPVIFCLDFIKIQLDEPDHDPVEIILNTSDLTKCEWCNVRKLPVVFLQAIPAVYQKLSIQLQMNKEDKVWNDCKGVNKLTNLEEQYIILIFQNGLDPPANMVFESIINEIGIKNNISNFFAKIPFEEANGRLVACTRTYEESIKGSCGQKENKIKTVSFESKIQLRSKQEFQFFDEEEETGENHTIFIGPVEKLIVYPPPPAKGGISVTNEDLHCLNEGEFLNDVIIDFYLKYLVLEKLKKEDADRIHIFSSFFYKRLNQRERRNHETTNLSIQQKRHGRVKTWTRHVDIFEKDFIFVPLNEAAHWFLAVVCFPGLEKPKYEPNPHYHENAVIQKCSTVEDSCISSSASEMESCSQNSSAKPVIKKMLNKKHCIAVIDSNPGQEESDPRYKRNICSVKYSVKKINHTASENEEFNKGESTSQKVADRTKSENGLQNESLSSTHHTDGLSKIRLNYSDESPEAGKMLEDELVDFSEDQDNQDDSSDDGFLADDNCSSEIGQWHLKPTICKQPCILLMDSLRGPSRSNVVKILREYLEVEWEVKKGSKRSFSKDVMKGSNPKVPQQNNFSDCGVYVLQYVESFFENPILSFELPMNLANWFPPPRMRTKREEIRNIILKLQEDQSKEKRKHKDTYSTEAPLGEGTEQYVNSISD
# [6] = tested on: Vero; test: cells; format: functional, cell-based; settings: Chlorocebus sabaeus
# [7] = molecular target: Glucose-6-phosphate 1-dehydrogenase (Homo sapiens, UniProt P11413); test: human G6PD enzyme inhibitors, dose response, selectivity assay for P. falciparum G6PD inhibitor project, biochemical, fluorescence (AID 504792); format: functional
# [8] = molecular target: DNA (cytosine-5)-methyltransferase 1 (Homo sapiens, UniProt P26358); test: DNMT1 methyltransferase inhibitors, confirmation, biochemical, fluorescent molecular beacon (AID 602386); format: functional
# [9] = HeLa cell cytotoxicity, dose response, cytotoxicity control for MgcRacGAP inhibitor project (AID 624300); format: functional
# [10] = molecular target: Genome polyprotein (dengue virus type 2, UniProt P29990); test: Dengue-2 NS5 methyltransferase inhibitors, primary screen, biochemical, confirmation dose response (AID 588689); format: functional
# [11] = molecular target: T5, Rac GTPase-activating protein 1 (Homo sapiens, UniProt Q9H0H5); test: MgcRacGAP GTPase-activating activity inhibitors, confirmation, biochemical, ADP Hunter fluorescence, primary and confirmatory (AID 624330); format: functional
# T5 sequence (Q9H0H5 whole entry): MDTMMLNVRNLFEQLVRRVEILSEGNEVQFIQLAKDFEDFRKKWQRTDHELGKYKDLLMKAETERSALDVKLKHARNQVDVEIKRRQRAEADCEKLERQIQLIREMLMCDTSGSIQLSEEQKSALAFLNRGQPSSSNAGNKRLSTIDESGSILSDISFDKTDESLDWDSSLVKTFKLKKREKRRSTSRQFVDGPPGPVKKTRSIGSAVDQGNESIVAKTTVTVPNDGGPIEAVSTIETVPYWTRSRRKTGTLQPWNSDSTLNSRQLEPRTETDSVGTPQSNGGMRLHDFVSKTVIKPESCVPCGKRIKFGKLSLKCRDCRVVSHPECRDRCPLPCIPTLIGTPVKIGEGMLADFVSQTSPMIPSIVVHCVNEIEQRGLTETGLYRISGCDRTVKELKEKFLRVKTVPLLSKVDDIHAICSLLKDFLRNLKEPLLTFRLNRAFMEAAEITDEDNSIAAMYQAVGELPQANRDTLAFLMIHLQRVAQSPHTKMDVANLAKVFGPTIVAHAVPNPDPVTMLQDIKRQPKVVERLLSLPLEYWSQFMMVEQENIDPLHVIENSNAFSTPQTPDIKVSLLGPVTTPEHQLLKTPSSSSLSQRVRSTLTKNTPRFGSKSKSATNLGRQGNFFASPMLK
# [12] = molecular target: T6, Histone-lysine N-methyltransferase NSD2 (Homo sapiens, UniProt O96028); format: biochemical
# T6 sequence (O96028 whole entry): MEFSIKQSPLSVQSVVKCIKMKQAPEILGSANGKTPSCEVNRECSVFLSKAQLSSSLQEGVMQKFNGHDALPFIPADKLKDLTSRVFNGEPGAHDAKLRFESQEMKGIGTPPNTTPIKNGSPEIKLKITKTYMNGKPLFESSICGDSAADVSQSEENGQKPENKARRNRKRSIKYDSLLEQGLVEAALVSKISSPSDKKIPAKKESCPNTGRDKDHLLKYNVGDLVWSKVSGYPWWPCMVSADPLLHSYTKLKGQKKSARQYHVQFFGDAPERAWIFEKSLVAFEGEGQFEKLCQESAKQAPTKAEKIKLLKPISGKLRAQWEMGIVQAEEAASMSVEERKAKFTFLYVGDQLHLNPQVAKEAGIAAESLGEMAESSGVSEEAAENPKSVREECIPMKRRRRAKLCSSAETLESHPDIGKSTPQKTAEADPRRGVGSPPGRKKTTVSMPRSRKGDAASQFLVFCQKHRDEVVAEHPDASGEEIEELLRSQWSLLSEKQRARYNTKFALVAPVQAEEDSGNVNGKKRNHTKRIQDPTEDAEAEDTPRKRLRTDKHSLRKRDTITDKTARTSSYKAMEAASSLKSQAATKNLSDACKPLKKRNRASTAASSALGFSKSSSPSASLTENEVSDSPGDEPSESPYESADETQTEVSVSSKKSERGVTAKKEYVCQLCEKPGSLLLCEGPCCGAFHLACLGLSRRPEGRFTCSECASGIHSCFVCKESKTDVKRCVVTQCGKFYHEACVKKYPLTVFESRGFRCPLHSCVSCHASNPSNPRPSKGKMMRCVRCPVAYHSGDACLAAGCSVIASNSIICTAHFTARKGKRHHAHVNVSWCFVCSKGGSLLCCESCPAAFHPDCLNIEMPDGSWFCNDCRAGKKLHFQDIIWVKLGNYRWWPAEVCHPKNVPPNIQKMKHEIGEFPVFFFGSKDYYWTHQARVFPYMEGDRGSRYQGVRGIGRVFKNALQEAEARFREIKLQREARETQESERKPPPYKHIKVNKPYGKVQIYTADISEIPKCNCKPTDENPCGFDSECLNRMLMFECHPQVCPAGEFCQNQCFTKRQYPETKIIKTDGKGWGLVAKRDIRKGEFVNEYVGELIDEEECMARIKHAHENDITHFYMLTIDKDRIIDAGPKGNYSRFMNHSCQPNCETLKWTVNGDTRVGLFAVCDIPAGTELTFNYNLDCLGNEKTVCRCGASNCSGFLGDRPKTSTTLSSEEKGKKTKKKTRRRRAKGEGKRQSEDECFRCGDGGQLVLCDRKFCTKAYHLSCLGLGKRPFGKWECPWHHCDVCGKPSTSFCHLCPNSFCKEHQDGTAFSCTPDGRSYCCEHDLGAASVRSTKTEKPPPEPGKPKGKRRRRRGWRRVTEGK
# [13] = molecular target: Induced myeloid leukemia cell differentiation protein Mcl-1 (Homo sapiens, UniProt Q07820); format: functional
# [14] = molecular target: T7, Streptokinase A (Streptococcus pyogenes serotype M1, UniProt P10520); test: S. pyogenes streptokinase expression inhibitors, potency, dose response, plasminogen activation absorbance, OD405 (AID 1914); format: functional, Streptococcus pyogenes M1 GAS;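 further: secreted streptokinase activity via plasminogen activation per viability signal from cell pellet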
# T7 sequence (P10520 whole entry): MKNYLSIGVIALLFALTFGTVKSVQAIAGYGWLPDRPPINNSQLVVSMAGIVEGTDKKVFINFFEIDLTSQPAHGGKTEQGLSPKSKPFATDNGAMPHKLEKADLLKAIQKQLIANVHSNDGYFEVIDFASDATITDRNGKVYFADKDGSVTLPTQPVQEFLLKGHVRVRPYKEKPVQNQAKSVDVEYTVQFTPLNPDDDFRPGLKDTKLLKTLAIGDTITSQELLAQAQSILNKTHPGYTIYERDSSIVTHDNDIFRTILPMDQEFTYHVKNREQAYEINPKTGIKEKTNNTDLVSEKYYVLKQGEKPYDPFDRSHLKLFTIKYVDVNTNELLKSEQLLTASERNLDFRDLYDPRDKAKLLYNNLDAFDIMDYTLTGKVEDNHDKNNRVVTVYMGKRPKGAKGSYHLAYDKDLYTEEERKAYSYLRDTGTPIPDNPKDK
# [15] = tested on: Streptococcus; test: Group A Streptococcus viability loss, dose response, counter-screen for streptokinase expression inhibitor project, luminescence, BacTiterGlo (AID 1915); format: functional, organism-based;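 further: potency for reduction of bacterial viability or growth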
# [16] = tested on: Vero; test: cells; format: functional; settings: Chlorocebus sabaeus
# [17] = tested on: Streptococcus sp. 'group A'; test: growth inhibition of control SK(-) GAS strain, dose response, counter-screen for streptokinase expression inhibitor project, luminescence, kanamycin, BacTiterGlo, confirmation (AID 1900); format: functional, organism-based
# Sequence of Induced myeloid leukemia cell differentiation protein Mcl-1 (Q07820 whole entry): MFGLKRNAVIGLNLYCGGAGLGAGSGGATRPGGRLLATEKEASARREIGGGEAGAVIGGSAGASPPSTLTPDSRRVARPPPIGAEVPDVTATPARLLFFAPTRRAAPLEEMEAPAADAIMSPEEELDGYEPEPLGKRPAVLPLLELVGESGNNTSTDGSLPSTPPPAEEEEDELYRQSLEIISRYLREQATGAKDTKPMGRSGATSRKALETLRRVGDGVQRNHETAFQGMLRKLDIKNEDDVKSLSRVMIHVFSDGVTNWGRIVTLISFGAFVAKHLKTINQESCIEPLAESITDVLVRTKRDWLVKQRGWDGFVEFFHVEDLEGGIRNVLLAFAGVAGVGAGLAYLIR
# Sequence of Glucose-6-phosphate 1-dehydrogenase (P11413 whole entry): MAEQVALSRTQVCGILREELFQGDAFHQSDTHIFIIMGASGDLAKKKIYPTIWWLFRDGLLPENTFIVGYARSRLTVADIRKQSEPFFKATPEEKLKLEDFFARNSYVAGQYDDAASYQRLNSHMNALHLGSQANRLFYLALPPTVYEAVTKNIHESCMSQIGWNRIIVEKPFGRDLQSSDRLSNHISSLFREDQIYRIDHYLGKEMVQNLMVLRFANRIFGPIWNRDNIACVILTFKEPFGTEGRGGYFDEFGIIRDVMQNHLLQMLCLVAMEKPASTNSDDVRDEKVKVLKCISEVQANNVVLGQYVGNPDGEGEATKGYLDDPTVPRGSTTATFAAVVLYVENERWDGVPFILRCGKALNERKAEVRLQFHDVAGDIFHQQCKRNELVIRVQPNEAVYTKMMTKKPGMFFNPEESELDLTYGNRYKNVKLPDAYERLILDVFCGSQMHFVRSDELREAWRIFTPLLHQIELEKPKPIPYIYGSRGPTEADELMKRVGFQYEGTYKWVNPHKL
# Sequence of Genome polyprotein (P29990 2492-3391 limits assumed): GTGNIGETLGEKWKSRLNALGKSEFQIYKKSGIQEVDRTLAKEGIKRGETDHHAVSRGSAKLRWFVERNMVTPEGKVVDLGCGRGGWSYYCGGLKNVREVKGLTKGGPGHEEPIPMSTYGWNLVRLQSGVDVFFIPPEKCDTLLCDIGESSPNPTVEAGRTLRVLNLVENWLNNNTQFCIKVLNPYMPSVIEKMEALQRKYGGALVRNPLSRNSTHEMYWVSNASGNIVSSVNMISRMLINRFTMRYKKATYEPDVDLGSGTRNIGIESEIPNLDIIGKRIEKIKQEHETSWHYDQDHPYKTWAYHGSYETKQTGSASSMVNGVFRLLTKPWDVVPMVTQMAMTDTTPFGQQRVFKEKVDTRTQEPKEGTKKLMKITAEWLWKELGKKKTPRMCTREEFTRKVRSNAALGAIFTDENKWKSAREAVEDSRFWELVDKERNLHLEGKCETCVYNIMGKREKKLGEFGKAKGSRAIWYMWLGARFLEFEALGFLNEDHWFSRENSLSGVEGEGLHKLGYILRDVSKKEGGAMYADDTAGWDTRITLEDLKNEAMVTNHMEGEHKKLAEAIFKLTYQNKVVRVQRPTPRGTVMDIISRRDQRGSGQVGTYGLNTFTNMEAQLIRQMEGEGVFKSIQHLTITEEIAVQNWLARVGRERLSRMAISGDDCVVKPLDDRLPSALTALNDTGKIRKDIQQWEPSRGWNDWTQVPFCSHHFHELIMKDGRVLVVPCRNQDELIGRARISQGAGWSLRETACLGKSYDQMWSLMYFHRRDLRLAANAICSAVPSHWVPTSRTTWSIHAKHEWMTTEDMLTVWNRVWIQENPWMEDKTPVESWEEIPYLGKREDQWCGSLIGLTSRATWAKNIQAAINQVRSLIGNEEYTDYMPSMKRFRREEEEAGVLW
# Sequence of DNA (cytosine-5)-methyltransferase 1 (P26358 whole entry): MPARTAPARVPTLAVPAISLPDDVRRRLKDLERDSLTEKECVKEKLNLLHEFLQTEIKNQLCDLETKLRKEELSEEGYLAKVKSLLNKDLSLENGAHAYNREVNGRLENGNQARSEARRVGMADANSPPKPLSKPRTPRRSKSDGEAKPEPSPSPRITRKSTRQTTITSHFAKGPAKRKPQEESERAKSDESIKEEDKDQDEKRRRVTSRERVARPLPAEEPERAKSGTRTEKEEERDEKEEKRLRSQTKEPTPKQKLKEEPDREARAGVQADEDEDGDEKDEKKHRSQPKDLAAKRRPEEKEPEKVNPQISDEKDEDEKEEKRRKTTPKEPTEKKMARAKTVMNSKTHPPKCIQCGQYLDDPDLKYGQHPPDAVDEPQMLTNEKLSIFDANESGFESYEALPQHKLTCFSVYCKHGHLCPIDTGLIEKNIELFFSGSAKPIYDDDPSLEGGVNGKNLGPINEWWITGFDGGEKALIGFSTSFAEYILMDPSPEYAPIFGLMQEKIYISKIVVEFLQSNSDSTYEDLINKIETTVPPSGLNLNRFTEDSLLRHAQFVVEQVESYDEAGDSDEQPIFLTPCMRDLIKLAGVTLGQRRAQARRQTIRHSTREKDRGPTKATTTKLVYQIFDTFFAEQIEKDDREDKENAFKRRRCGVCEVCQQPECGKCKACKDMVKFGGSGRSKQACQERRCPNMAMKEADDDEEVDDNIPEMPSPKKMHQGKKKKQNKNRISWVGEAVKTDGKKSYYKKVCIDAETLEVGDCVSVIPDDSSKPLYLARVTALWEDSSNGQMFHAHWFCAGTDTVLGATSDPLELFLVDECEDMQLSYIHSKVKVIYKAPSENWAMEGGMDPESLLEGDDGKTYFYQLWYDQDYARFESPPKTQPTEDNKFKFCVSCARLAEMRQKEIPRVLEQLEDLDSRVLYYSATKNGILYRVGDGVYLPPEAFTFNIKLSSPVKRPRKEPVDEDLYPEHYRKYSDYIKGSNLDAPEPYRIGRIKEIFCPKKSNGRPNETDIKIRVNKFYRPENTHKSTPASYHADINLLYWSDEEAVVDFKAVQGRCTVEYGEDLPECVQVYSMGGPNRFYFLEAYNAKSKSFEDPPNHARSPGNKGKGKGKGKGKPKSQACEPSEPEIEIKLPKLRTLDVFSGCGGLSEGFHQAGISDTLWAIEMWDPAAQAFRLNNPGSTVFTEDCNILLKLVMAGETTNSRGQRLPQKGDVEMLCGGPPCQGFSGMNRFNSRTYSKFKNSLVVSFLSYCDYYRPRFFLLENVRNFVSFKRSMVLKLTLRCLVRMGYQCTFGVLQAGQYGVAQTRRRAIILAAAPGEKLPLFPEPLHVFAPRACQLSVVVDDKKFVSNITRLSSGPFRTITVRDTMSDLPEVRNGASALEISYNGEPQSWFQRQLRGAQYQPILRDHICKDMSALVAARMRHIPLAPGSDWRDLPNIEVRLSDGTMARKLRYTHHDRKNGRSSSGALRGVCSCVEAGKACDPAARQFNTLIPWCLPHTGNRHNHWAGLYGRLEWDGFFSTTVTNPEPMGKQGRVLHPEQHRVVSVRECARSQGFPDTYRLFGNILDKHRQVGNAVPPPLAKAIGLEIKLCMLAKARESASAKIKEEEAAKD
compound,measurement,setting,value
COC(=O)C1CCCCN1C(=O)c1ccc2oc(Cc3ccccc3)nc2c1 (stereo unspecified),AC50,[1],181 µM (active)
Cc1nn2c(-c3ccccc3)ccnc2c1-c1ccccc1,AC50,[1],34.7 µM (active)
CC1CCCN(C(=O)c2ccc(-c3ccccc3Cl)o2)C1 (stereo unspecified),IC50,[2],15.2 µM (active)
same,IC50,[3],34.7 µM (active)
same,IC50,[4],31.4 µM (active)
same,IC50,[5],27.6 µM (active)
COc1ccc2c(c1OC)C(=O)N(c1ccc(C)cc1)C2,AC50,[1],82.3 µM (active)
Cc1ccc(C(C)C)cc1OCC(=O)Nc1nnc(C2CC2)s1,IC50,[6],> 25 µM (active)
COC1=C(Br)C(=O)c2nc(C)ccc2C1=O,IC50,[7],53.7 µM (inactive)
same,IC50,[8],8.73 µM (active)
same,CC50,[9],100 µM (active)
same,IC50,[10],3.77 µM (active)
same,IC50,[11],68.1 µM (active)
same,AC50,[12],1.71 µM (active)
O=C(O)c1ccccc1N/N=C/c1cc(Br)cc(Br)c1O,IC50,[13],8.04 µM (active)
same,EC50,[14],32.4 µM (active)
same,EC50,[15],60.6 µM (active)
same,IC50,[6],18.9 µM (active)
same,AC50,[1],57.4 µM (active)
same,CC50,[16],> 25 µM (active)
same,EC50,[17],4.5 µM (active)
